Measured values published in ChEMBL document CHEMBL1201862, “PubChem BioAssay data set” (2004).
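Where inhibition never reached the appropriate level, the endpoint shown equals the highest concentration tested. Otherwise, values were interpolated linearly from a five-concentration, 48-hour dose response in 96-well plates. Abbreviation: GI50, concentration required for 50% inhibition of growth.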 The source made the active and inactive calls. No stated cut-off is given here; in the data, active = GI50 up to about 1.1 µM and inactive = higher.

Key:
Experiment in all cases: growth of human tumour cells (NCI), 48 h
A549 = tested on: A549
CCRF-CEM = tested on: CCRF-CEM
DLD-1 = tested on: DLD-1
HCC 2998 = tested on: HCC 2998
K562 = tested on: K562
M14 = tested on: M14
OVCAR-4 = tested on: OVCAR-4
OVCAR-5 = tested on: OVCAR-5
SK-MEL-5 = tested on: SK-MEL-5
SK-OV-3 = tested on: SK-OV-3
SN12C = tested on: SN12C
SR = tested on: SR
U-251 = tested on: U-251
UACC-257 = tested on: UACC-257
UACC-62 = tested on: UACC-62
RPMI-8226 = tested on: RPMI-8226
NCI/ADR-RES = tested on: NCI/ADR-RES
Hs-578T = tested on: Hs-578T
MDA-N = tested on: MDA-N
T47D = tested on: T47D

Row | SMILES | GI50 (A549) | GI50 (CCRF-CEM) | GI50 (DLD-1) | GI50 (HCC 2998) | GI50 (K562) | GI50 (M14) | GI50 (OVCAR-4) | GI50 (OVCAR-5) | GI50 (SK-MEL-5) | GI50 (SK-OV-3) | GI50 (SN12C) | GI50 (SR) | GI50 (U-251) | GI50 (UACC-257) | GI50 (UACC-62) | GI50 (RPMI-8226) | GI50 (NCI/ADR-RES) | GI50 (Hs-578T) | GI50 (MDA-N) | GI50 (T47D)
1 | N#CC1CC2(C(=O)C1=O)c1ccccc1-c1ccccc12 (centres undefined) | > 100 µM (inactive) | 67.5 µM (inactive) | > 100 µM (inactive) | > 100 µM (inactive) | 86.1 µM (inactive) | > 100 µM (inactive) | > 100 µM (inactive) | > 100 µM (inactive) | > 100 µM (inactive) | > 100 µM (inactive) | > 100 µM (inactive) | > 100 µM (inactive) | > 100 µM (inactive) | > 100 µM (inactive) | > 100 µM (inactive) | – | – | – | – | –
2 | N#CC(C#N)=C1SCC(=O)CS1 | > 100 µM (inactive) | > 100 µM (inactive) | > 100 µM (inactive) | > 100 µM (inactive) | > 100 µM (inactive) | > 100 µM (inactive) | > 100 µM (inactive) | > 100 µM (inactive) | > 100 µM (inactive) | > 100 µM (inactive) | > 100 µM (inactive) | > 100 µM (inactive) | > 100 µM (inactive) | > 100 µM (inactive) | > 100 µM (inactive) | > 100 µM (inactive) | – | – | – | –
3 | Cc1ccc(N2Cc3c(ccc4ccccc34)OP2(=S)N2CCCC2)cc1 (centres undefined) | > 100 µM (inactive) | > 100 µM (inactive) | > 100 µM (inactive) | > 100 µM (inactive) | > 89.9 µM (inactive) | – | > 100 µM (inactive) | > 100 µM (inactive) | > 100 µM (inactive) | > 100 µM (inactive) | > 100 µM (inactive) | – | > 100 µM (inactive) | > 100 µM (inactive) | > 100 µM (inactive) | > 22 µM (inactive) | > 100 µM (inactive) | – | – | –
4 | C=Cc1c(-c2ccccc2)cnc2[nH]c3ccccc3c12 | > 50 µM (inactive) | > 50 µM (inactive) | > 50 µM (inactive) | > 50 µM (inactive) | > 50 µM (inactive) | > 50 µM (inactive) | > 50 µM (inactive) | > 50 µM (inactive) | > 50 µM (inactive) | > 50 µM (inactive) | > 50 µM (inactive) | > 50 µM (inactive) | > 50 µM (inactive) | > 50 µM (inactive) | > 50 µM (inactive) | > 50 µM (inactive) | – | – | – | –
5 | Cc1cccc2c1CCC21OC(=O)c2c1ccc1ccccc21 (centres undefined) | > 100 µM (inactive) | 38.6 µM (inactive) | 83.9 µM (inactive) | 29.4 µM (inactive) | 21.7 µM (inactive) | 23.7 µM (inactive) | 52.6 µM (inactive) | 88.5 µM (inactive) | 19.6 µM (inactive) | 37.3 µM (inactive) | > 100 µM (inactive) | 29.2 µM (inactive) | 45.8 µM (inactive) | 25.8 µM (inactive) | 40.3 µM (inactive) | – | – | – | – | –
6 | c1ccc2c(NCCCCCCCCNc3cccc4ccccc34)cccc2c1 | > 100 µM (inactive) | 14.6 µM (inactive) | 34.2 µM (inactive) | > 100 µM (inactive) | 21.5 µM (inactive) | 19.9 µM (inactive) | 28.2 µM (inactive) | 46 µM (inactive) | > 10 µM (inactive) | > 100 µM (inactive) | 35.6 µM (inactive) | – | 63.2 µM (inactive) | 19.8 µM (inactive) | 20.5 µM (inactive) | > 10 µM (inactive) | – | – | – | –
7 | CC(=O)Oc1ccccc1C(=O)C1c2cccc(O)c2C(=O)c2c(O)cccc21 | 0.776 µM (active) | 0.306 µM (active) | 1.23 µM (inactive) | 0.581 µM (active) | 0.366 µM (active) | 1.84 µM (inactive) | 0.995 µM (active) | 2.58 µM (inactive) | 1.05 µM (active) | 0.543 µM (active) | 2.3 µM (inactive) | 0.419 µM (active) | 0.494 µM (active) | 1.62 µM (inactive) | 0.794 µM (active) | 0.374 µM (active) | – | – | – | –
8 | CCCC(O)c1cn(-c2cccc(S(=O)(=O)O)c2)nn1 (centres undefined) | > 100 µM (inactive) | > 100 µM (inactive) | > 100 µM (inactive) | > 100 µM (inactive) | > 100 µM (inactive) | > 100 µM (inactive) | > 100 µM (inactive) | > 100 µM (inactive) | > 100 µM (inactive) | > 100 µM (inactive) | > 100 µM (inactive) | – | > 100 µM (inactive) | > 100 µM (inactive) | > 100 µM (inactive) | > 100 µM (inactive) | – | – | – | –
9 | NC(=O)C(=O)n1ncc(Cl)c(Cl)c1=O | > 67.8 µM (inactive) | 6.03 µM (inactive) | 15.3 µM (inactive) | 25.8 µM (inactive) | 9.46 µM (inactive) | 28.8 µM (inactive) | 29.4 µM (inactive) | 37.5 µM (inactive) | 18.3 µM (inactive) | > 100 µM (inactive) | 18.6 µM (inactive) | 19.2 µM (inactive) | > 40.7 µM (inactive) | 34 µM (inactive) | 31.5 µM (inactive) | 11.7 µM (inactive) | 24.4 µM (inactive) | > 100 µM (inactive) | > 100 µM (inactive) | > 100 µM (inactive)
10 | CCc1cccc(CC)c1NC(=O)C1=C(C)NC(C)=C(C(=O)Nc2c(CC)cccc2CC)C1c1ccc2c(c1)OCO2 | 25.9 µM (inactive) | 5.93 µM (inactive) | 24.3 µM (inactive) | 21.6 µM (inactive) | 15.6 µM (inactive) | 16.8 µM (inactive) | 16.6 µM (inactive) | 17.7 µM (inactive) | 18.1 µM (inactive) | 25.8 µM (inactive) | 15.3 µM (inactive) | 3.66 µM (inactive) | 14 µM (inactive) | 17.9 µM (inactive) | 12.6 µM (inactive) | 22.5 µM (inactive) | – | – | – | –
11 | C=C1C2=C(CCCC2)C(=O)OC12CCCCC2 | 49.3 µM (inactive) | 51.4 µM (inactive) | 92.7 µM (inactive) | > 100 µM (inactive) | 45.2 µM (inactive) | > 100 µM (inactive) | 98.2 µM (inactive) | 79.8 µM (inactive) | 38 µM (inactive) | > 100 µM (inactive) | > 100 µM (inactive) | 38.9 µM (inactive) | 73.6 µM (inactive) | 52.1 µM (inactive) | 56.9 µM (inactive) | 35.5 µM (inactive) | – | – | – | –
12 | CC(C)(C)NNC(=O)/C(=C/c1ccc([N+](=O)[O-])cc1)NC(=O)c1ccccc1 | > 100 µM (inactive) | 31.3 µM (inactive) | 43.5 µM (inactive) | > 100 µM (inactive) | > 100 µM (inactive) | > 100 µM (inactive) | 75 µM (inactive) | > 100 µM (inactive) | > 100 µM (inactive) | > 100 µM (inactive) | > 100 µM (inactive) | 21.6 µM (inactive) | 39 µM (inactive) | > 100 µM (inactive) | > 100 µM (inactive) | 45 µM (inactive) | – | – | – | –
13 | C/C(=N/Nc1ccc([N+](=O)[O-])cc1[N+](=O)[O-])C(CC(C(=O)Nc1ccccc1C)/C(C)=N\Nc1ccc([N+](=O)[O-])cc1[N+](=O)[O-])C(=O)Nc1ccccc1C (centres undefined) | 19.7 µM (inactive) | > 100 µM (inactive) | 28.4 µM (inactive) | 21.6 µM (inactive) | > 100 µM (inactive) | 18 µM (inactive) | 5.74 µM (inactive) | 16.9 µM (inactive) | 17.2 µM (inactive) | 30.1 µM (inactive) | 6 µM (inactive) | – | 6.12 µM (inactive) | 14.4 µM (inactive) | 19.6 µM (inactive) | > 35 µM (inactive) | – | – | – | –
14 | O=C(COC(=O)c1cccc2c(=O)c3ccccc3[nH]c12)Nc1ccc(Cl)cc1 | > 100 µM (inactive) | 54 µM (inactive) | 16.9 µM (inactive) | > 100 µM (inactive) | > 100 µM (inactive) | 78.9 µM (inactive) | 95.9 µM (inactive) | – | 44.2 µM (inactive) | 82.8 µM (inactive) | > 100 µM (inactive) | 19.7 µM (inactive) | 24.9 µM (inactive) | > 100 µM (inactive) | 54.1 µM (inactive) | – | – | – | – | –
15 | CC1(C)OCC(CO)(Nc2nc(N3CC3)nc(N3CC3)n2)CO1 | 4.05 µM (inactive) | 1.16 µM (inactive) | 31.3 µM (inactive) | 16.9 µM (inactive) | 12.7 µM (inactive) | 9.2 µM (inactive) | 18.8 µM (inactive) | 20 µM (inactive) | 8.18 µM (inactive) | 5.78 µM (inactive) | 7.71 µM (inactive) | 0.483 µM (active) | 4.04 µM (inactive) | 14.7 µM (inactive) | 3.15 µM (inactive) | 16.1 µM (inactive) | – | 19 µM (inactive) | 13.3 µM (inactive) | 1.49 µM (inactive)
16 | CCN(CC)Cc1cc(Nc2c3ccccc3nc3c2[nH]c2ccccc23)ccc1O | 0.352 µM (active) | – | 1.25 µM (inactive) | – | 1.87 µM (inactive) | 1.7 µM (inactive) | 1.39 µM (inactive) | 1.22 µM (inactive) | 1.89 µM (inactive) | 2.11 µM (inactive) | 1.67 µM (inactive) | 0.337 µM (active) | 1.17 µM (inactive) | 2.44 µM (inactive) | 1.62 µM (inactive) | 1.96 µM (inactive) | – | – | – | –
17 | COC(=O)C1=C(C)C(=O)[C@H]2C(C(=O)OC)CCCC[C@@H]12 (some centres undefined) | > 100 µM (inactive) | 40.5 µM (inactive) | > 100 µM (inactive) | > 100 µM (inactive) | 55.8 µM (inactive) | > 100 µM (inactive) | > 100 µM (inactive) | > 100 µM (inactive) | 72.9 µM (inactive) | > 100 µM (inactive) | > 100 µM (inactive) | 49.1 µM (inactive) | > 100 µM (inactive) | 45.6 µM (inactive) | > 100 µM (inactive) | 66.2 µM (inactive) | – | – | – | –
